Earlier results on one molecule are cited in patent US20060019313A1, “Method for detecting molecular surface interactions” (Biacore AB, priority 2004, published 2006).

The series deals with Anti-myoglobin IgG. Particulars: stated as known; IgG used as reference.

Consider `CCC(Cc1c(I)cc(I)c(O)c1I)C(=O)O` (stereo not drawn) [iophenoxic acid, α-ethyl-3-hydroxy-2,4,6-triiodohydro-cinnamic acid], for which the “binding to IgG” value is on record as “not to IgG”.
